Measured values reported in PubChem BioAssay (NCI).
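Five concentrations, 48 hours, 96-well plates. TGI denotes the concentration required for complete inhibition of growth.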

How the values were obtained:
Experiment in all cases: NCI-60 cell line screen, 48 h
DLD-1 colon = tested on: DLD-1 colon
DMS 114 small cell lung = tested on: DMS 114 small cell lung
DMS 273 small cell lung = tested on: DMS 273 small cell lung
HOP-18 NSCLC = tested on: HOP-18 NSCLC
KM20L2 colon = tested on: KM20L2 colon
LXFL 529 NSCLC = tested on: LXFL 529 NSCLC
M19-MEL melanoma = tested on: M19-MEL melanoma
RXF 393 renal = tested on: RXF 393 renal
RXF-631 renal = tested on: RXF-631 renal
SK-MEL-5 melanoma = tested on: SK-MEL-5 melanoma
SNB-78 CNS = tested on: SNB-78 CNS
XF 498 CNS = tested on: XF 498 CNS

Cn1c(=O)cc2[nH]c3ccccc3n2c1=O
TGI (DLD-1 colon): > 100 µM
TGI (DMS 114 small cell lung): > 100 µM
TGI (DMS 273 small cell lung): 45.3 µM
TGI (HOP-18 NSCLC): > 100 µM
TGI (KM20L2 colon): > 100 µM
TGI (LXFL 529 NSCLC): > 100 µM
TGI (M19-MEL melanoma): > 100 µM
TGI (RXF 393 renal): 64.2 µM
TGI (RXF-631 renal): 86.5 µM
TGI (SK-MEL-5 melanoma): > 100 µM
TGI (SNB-78 CNS): > 100 µM

CSc1ccc(NC(=O)C2c3[nH]c4ccccc4c3C3CCC(C(C)(C)C)CC3C2C(=O)O)cc1 (stereo unspecified)
TGI (DLD-1 colon): 54.6 µM
TGI (DMS 114 small cell lung): 63.4 µM
TGI (DMS 273 small cell lung): 30 µM
TGI (HOP-18 NSCLC): 35.9 µM
TGI (KM20L2 colon): 32.6 µM
TGI (LXFL 529 NSCLC): 31.8 µM
TGI (M19-MEL melanoma): 57.3 µM
TGI (RXF 393 renal): 49.5 µM
TGI (SK-MEL-5 melanoma): 66 µM
TGI (SNB-78 CNS): 53.2 µM
TGI (XF 498 CNS): 39.7 µM

O=c1oc2ccccc2c(O)c1C(c1ccc(-c2ccccc2)cc1)c1c(O)c2ccccc2oc1=O
TGI (SK-MEL-5 melanoma): 80.9 µM

CO[C@@]12C[C@@H](C)[C@]34O[C@H]3C[C@]3(C)O[C@]43CC1=C(C)C(=O)O2
TGI (SK-MEL-5 melanoma): > 100 µM

C=CCOCn1cc(F)c(=O)[nH]c1=O
TGI (SK-MEL-5 melanoma): > 100 µM

COC(=O)c1c(-c2cc(OC)c(OC)c(OC)c2)oc2ccccc2c1=O
TGI (DLD-1 colon): > 100 µM
TGI (DMS 273 small cell lung): > 100 µM
TGI (HOP-18 NSCLC): > 100 µM
TGI (KM20L2 colon): > 100 µM
TGI (LXFL 529 NSCLC): > 100 µM
TGI (M19-MEL melanoma): > 100 µM
TGI (RXF 393 renal): > 100 µM
TGI (SK-MEL-5 melanoma): > 100 µM
TGI (SNB-78 CNS): > 100 µM

COc1ccccc1/C=C1\S/C(=N/Nc2nc(C)c(C(C)=O)s2)NC1=O
TGI (RXF 393 renal): > 100 µM
TGI (SK-MEL-5 melanoma): 47.7 µM

O=C(O)CCCNc1ncc2c(n1)-c1ccccc1OC2
TGI (RXF 393 renal): > 100 µM
TGI (SK-MEL-5 melanoma): > 100 µM

COc1ccc(OC)c(/C=C2\CCc3ccccc3C2=O)c1
TGI (DLD-1 colon): 22.8 µM
TGI (DMS 114 small cell lung): 5.21 µM
TGI (DMS 273 small cell lung): 12.8 µM
TGI (HOP-18 NSCLC): 57.1 µM
TGI (KM20L2 colon): 9.62 µM
TGI (LXFL 529 NSCLC): 31.8 µM
TGI (M19-MEL melanoma): 23.5 µM
TGI (RXF 393 renal): 6.07 µM
TGI (SK-MEL-5 melanoma): 12.4 µM
TGI (XF 498 CNS): 11 µM

COC(=O)Cc1c([C@H]2[C@H](CC(=O)OC)c3ccccc3N2S(=O)(=O)c2ccc(C)cc2)[nH]c2ccccc12
TGI (RXF 393 renal): > 100 µM
TGI (SK-MEL-5 melanoma): > 100 µM

COC1=C2CC(C)CC(OC)C(OC(=O)CN)[C@H](C)/C=C(\C)C(OC(N)=O)C(OC)/C=C\C=C(/C)C(=O)NC(=CC1=O)C2=O (stereo partly specified)
TGI (RXF 393 renal): 8.21 µM
TGI (SK-MEL-5 melanoma): 4.51 µM

CC(NC1=CC(=O)c2cccnc2C1=O)C(O)c1ccccc1 (stereo unspecified)
TGI (RXF 393 renal): 16.5 µM
TGI (SK-MEL-5 melanoma): 2.44 µM

CN(C)C(=S)C(Cl)(c1ccccc1)c1ccccc1
TGI (SK-MEL-5 melanoma): > 100 µM

COC(=O)c1cc(O)c(O)c(O)c1-c1c(O)c(O)c(O)c(SC[C@H](NC(=O)OCc2ccccc2)C(=O)OCc2ccccc2)c1C(=O)OC
TGI (RXF 393 renal): > 100 µM

CN1C(=O)C(C(=O)Nc2ccccn2)C2C[C@@]1(C)Oc1ccccc12 (stereo partly specified)
TGI (RXF 393 renal): > 100 µM
TGI (SK-MEL-5 melanoma): > 100 µM

CCOC(=O)/C(C(=S)NCc1ccccc1)=C(/N)N1CCCC1
TGI (RXF 393 renal): > 100 µM
TGI (SK-MEL-5 melanoma): > 100 µM

Cn1c2ccccc2c2ccc3c(c21)C(=O)C(c1ccccc1)=CC3=O
TGI (DLD-1 colon): 64.6 µM
TGI (DMS 114 small cell lung): 43.2 µM
TGI (DMS 273 small cell lung): 84 µM
TGI (HOP-18 NSCLC): 5.51 µM
TGI (LXFL 529 NSCLC): 33.5 µM
TGI (M19-MEL melanoma): 59.9 µM
TGI (SK-MEL-5 melanoma): 87.5 µM
TGI (SNB-78 CNS): > 100 µM

COc1ccc(OC)c(NC(=O)C(=O)CC(=O)c2sc(-n3nc(-c4ccccc4)cc3-c3ccccc3)nc2C)c1
TGI (DLD-1 colon): > 100 µM
TGI (DMS 114 small cell lung): > 100 µM
TGI (DMS 273 small cell lung): > 100 µM
TGI (KM20L2 colon): > 100 µM
TGI (LXFL 529 NSCLC): > 100 µM
TGI (M19-MEL melanoma): > 100 µM
TGI (RXF 393 renal): > 100 µM
TGI (RXF-631 renal): > 100 µM
TGI (SNB-78 CNS): > 100 µM

CC(=O)NNc1nc(C)c(C(=O)NNC(=O)C(=O)Nc2c([N+](=O)[O-])ccc(C)c2C)s1
TGI (DLD-1 colon): > 100 µM
TGI (DMS 114 small cell lung): > 100 µM
TGI (DMS 273 small cell lung): > 100 µM
TGI (KM20L2 colon): > 100 µM
TGI (LXFL 529 NSCLC): > 100 µM
TGI (M19-MEL melanoma): > 100 µM
TGI (SK-MEL-5 melanoma): > 100 µM
TGI (SNB-78 CNS): > 100 µM
TGI (XF 498 CNS): > 100 µM

CS(=O)(=O)OCCCSCCSCCCOS(C)(=O)=O
TGI (SK-MEL-5 melanoma): > 100 µM

COCN(C)c1nc(N(C)C)nc(N(C)C)n1
TGI (DLD-1 colon): > 100 µM
TGI (DMS 114 small cell lung): > 100 µM
TGI (DMS 273 small cell lung): > 100 µM
TGI (HOP-18 NSCLC): > 100 µM
TGI (KM20L2 colon): > 100 µM
TGI (LXFL 529 NSCLC): > 100 µM
TGI (M19-MEL melanoma): > 100 µM
TGI (RXF 393 renal): > 100 µM
TGI (SK-MEL-5 melanoma): > 100 µM
TGI (SNB-78 CNS): > 100 µM

CO[C@]12S[C@@H]3CCCC[C@@]31C(C)(C)C(=O)N2c1ccccc1
TGI (RXF 393 renal): > 100 µM
TGI (SK-MEL-5 melanoma): 43.3 µM

O=C1CCC2c3ccccc3NCN12 (stereo unspecified)
TGI (RXF 393 renal): > 100 µM
TGI (SK-MEL-5 melanoma): > 100 µM

Nc1cc2ncnn2c(SCC(=O)N/N=C/C(Br)=C\c2ccccc2)n1
TGI (RXF 393 renal): 42.2 µM
TGI (SK-MEL-5 melanoma): 26.2 µM

COC(=O)CC(C(C(=O)OC)C(=O)OC)N1C(=O)OC(c2ccccc2)C1c1ccccc1 (stereo unspecified)
TGI (DLD-1 colon): > 100 µM
TGI (DMS 114 small cell lung): > 100 µM
TGI (DMS 273 small cell lung): > 100 µM
TGI (HOP-18 NSCLC): > 100 µM
TGI (KM20L2 colon): > 100 µM
TGI (LXFL 529 NSCLC): > 100 µM
TGI (M19-MEL melanoma): > 100 µM
TGI (RXF 393 renal): > 100 µM
TGI (SK-MEL-5 melanoma): > 100 µM

COc1cc([C@@H]2c3cc4c(cc3[C@@H](OC(=O)c3cccc(N)c3)C3COC(=O)[C@@H]32)OCO4)cc(OC)c1O (stereo partly specified)
TGI (DLD-1 colon): > 100 µM
TGI (DMS 273 small cell lung): > 100 µM
TGI (KM20L2 colon): 26.8 µM
TGI (LXFL 529 NSCLC): 51 µM
TGI (M19-MEL melanoma): > 100 µM
TGI (RXF 393 renal): 83.5 µM
TGI (SK-MEL-5 melanoma): 14 µM
TGI (SNB-78 CNS): > 100 µM
TGI (XF 498 CNS): 35 µM

ClCC[N-]CC[N-]CCCl.ClCC[N-]CC[N-]CCCl.[O-][Cl+3]([O-])([O-])O.[Zn+2]
TGI (DLD-1 colon): 35 µM
TGI (DMS 114 small cell lung): > 55.8 µM
TGI (DMS 273 small cell lung): > 60.2 µM
TGI (HOP-18 NSCLC): 56.5 µM
TGI (KM20L2 colon): > 100 µM
TGI (LXFL 529 NSCLC): 35.9 µM
TGI (M19-MEL melanoma): > 57.1 µM
TGI (RXF 393 renal): > 59.1 µM
TGI (SK-MEL-5 melanoma): 56.1 µM
TGI (SNB-78 CNS): > 76.6 µM
